From ChEMBL document CHEMBL1201862, “PubChem BioAssay data set” (2004)
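Cultured in 96-well plates, cells were exposed to test compound for 48 hours across five concentrations. At the GI50, growth is halved.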 Calls of active or inactive are those of the source. No stated cut-off is given here; in the data, active = GI50 up to about 1.1 µM and inactive = higher.

Legend:
Assay in all cases: NCI anticancer screen, dose series, 48 h
[1] = test system: ACHN
[2] = test system: COLO 205
[3] = test system: K562
[4] = test system: LOX IMVI
[5] = test system: MDA-MB-231
[6] = test system: MDA-N
[7] = test system: Malme-3M
[8] = test system: NCI-H226
[9] = test system: NCI/ADR-RES
[10] = test system: OVCAR-5
[11] = test system: OVCAR-8
[12] = test system: SK-MEL-5
[13] = test system: SK-OV-3
[14] = test system: SN12C
[15] = test system: TK-10
[16] = test system: UACC-257
[17] = test system: UO-31
[18] = test system: CCRF-CEM
[19] = test system: EKVX
[20] = test system: HCT-116

Row | Structure (SMILES) | GI50 [1] | GI50 [2] | GI50 [3] | GI50 [4] | GI50 [5] | GI50 [6] | GI50 [7] | GI50 [8] | GI50 [9] | GI50 [10] | GI50 [11] | GI50 [12] | GI50 [13] | GI50 [14] | GI50 [15] | GI50 [16] | GI50 [17] | GI50 [18] | GI50 [19] | GI50 [20]
1 | CNc1ccc(C(=O)CC(O)CCC(C)C2OC(=O)CC(O)CC(=O)CC(O)CC(O)CC(O)CC(O)CC3(O)CC(O)C(C(=O)NCCN(C)C)C(CC(OC4OC(C)C(O)C(NC(=O)CN5CCN(C)CC5)C4O)\C=C/C=C\C=C/C=C/C=C/C=C\C=C/C2C)O3)cc1 (stereo not given) | 2.84 µM (inactive) | 3.86 µM (inactive) | 3.2 µM (inactive) | 2.92 µM (inactive) | 81.7 µM (inactive) | 6.46 µM (inactive) | 2.28 µM (inactive) | > 100 µM (inactive) | 6.9 µM (inactive) | 57.4 µM (inactive) | 13.9 µM (inactive) | 2.81 µM (inactive) | > 100 µM (inactive) | 3.21 µM (inactive) | 22.5 µM (inactive) | 10.7 µM (inactive) | 4.34 µM (inactive) |  |  | 
2 | CC1=NN(c2ccccc2)C(=O)/C1=C\c1c(C)[nH]n(-c2ccccc2)c1=O | > 100 µM (inactive) | > 100 µM (inactive) | 38.8 µM (inactive) |  | > 100 µM (inactive) | > 100 µM (inactive) | 95.1 µM (inactive) | > 100 µM (inactive) | > 100 µM (inactive) | > 100 µM (inactive) | > 100 µM (inactive) | > 100 µM (inactive) | > 100 µM (inactive) | > 100 µM (inactive) | > 100 µM (inactive) | > 100 µM (inactive) | > 100 µM (inactive) | 75.9 µM (inactive) | > 100 µM (inactive) | > 100 µM (inactive)
3 | CS(=O)(=O)OCC1OC(n2ccc(NC(=O)c3ccccc3)nc2=O)CC1OS(C)(=O)=O (stereo not given) | > 100 µM (inactive) | > 100 µM (inactive) | > 100 µM (inactive) | > 100 µM (inactive) | > 100 µM (inactive) | > 100 µM (inactive) |  | > 100 µM (inactive) | > 100 µM (inactive) | > 100 µM (inactive) | > 100 µM (inactive) | > 100 µM (inactive) | > 100 µM (inactive) | > 100 µM (inactive) | > 100 µM (inactive) | > 100 µM (inactive) | > 10 µM (inactive) | > 100 µM (inactive) | > 100 µM (inactive) | > 100 µM (inactive)
4 | CC(=O)Nc1nnc(S(=O)(=O)NC(=S)Nc2ccc(Cl)cc2)s1 | > 100 µM (inactive) | > 100 µM (inactive) | > 100 µM (inactive) | > 100 µM (inactive) | > 100 µM (inactive) | > 100 µM (inactive) | > 100 µM (inactive) |  | > 100 µM (inactive) | > 100 µM (inactive) | > 100 µM (inactive) | > 100 µM (inactive) | > 100 µM (inactive) | > 100 µM (inactive) | > 100 µM (inactive) | > 100 µM (inactive) | > 100 µM (inactive) | > 100 µM (inactive) | > 100 µM (inactive) | > 100 µM (inactive)
5 | COC(=O)c1cc(OCc2cc(OCc3ccc(Br)cc3)cc(OCc3ccc(Br)cc3)c2)cc(OCc2cc(OCc3ccc(Br)cc3)cc(OCc3ccc(Br)cc3)c2)c1 | > 100 µM (inactive) | > 100 µM (inactive) | > 100 µM (inactive) |  | > 100 µM (inactive) | > 100 µM (inactive) | > 100 µM (inactive) | > 100 µM (inactive) | > 100 µM (inactive) | > 100 µM (inactive) |  | > 100 µM (inactive) | > 100 µM (inactive) | > 100 µM (inactive) | > 100 µM (inactive) | > 100 µM (inactive) | > 100 µM (inactive) |  | > 100 µM (inactive) | > 100 µM (inactive)
6 | c1cc(C[S+]2CCCC2)oc1C[S+]1CCCC1 | > 100 µM (inactive) | > 100 µM (inactive) | > 100 µM (inactive) | > 100 µM (inactive) | > 100 µM (inactive) | > 100 µM (inactive) | > 100 µM (inactive) |  | > 100 µM (inactive) |  | > 100 µM (inactive) | > 100 µM (inactive) | > 100 µM (inactive) | > 100 µM (inactive) | > 100 µM (inactive) | > 100 µM (inactive) | > 100 µM (inactive) | > 100 µM (inactive) | > 100 µM (inactive) | > 100 µM (inactive)
7 | COc1ccccc1N/C(SCc1ccccc1)=C(/C(Cl)=C(Cl)Cl)[N+](=O)[O-] | 32.1 µM (inactive) | 19.5 µM (inactive) | 19.8 µM (inactive) |  | 18.7 µM (inactive) | 28.9 µM (inactive) | 17.4 µM (inactive) | 35.5 µM (inactive) | 24.2 µM (inactive) | 33.3 µM (inactive) | 14.4 µM (inactive) |  | 46.5 µM (inactive) | 20.3 µM (inactive) |  | 85.3 µM (inactive) | 16.4 µM (inactive) | 23.6 µM (inactive) | 32 µM (inactive) | 31.3 µM (inactive)
8 | O=c1cc(-c2ccc(O)cc2)n(C2CC2)c2ccccc12 | 2.47 µM (inactive) | 2.64 µM (inactive) | 7.87 µM (inactive) | 4.67 µM (inactive) | 8.47 µM (inactive) | 10.6 µM (inactive) |  | 2.67 µM (inactive) | 11.9 µM (inactive) | 3.64 µM (inactive) | 5.31 µM (inactive) | 6.4 µM (inactive) | 9.08 µM (inactive) | 6.01 µM (inactive) |  | 10.2 µM (inactive) | 4.02 µM (inactive) | 7.16 µM (inactive) |  | 2.75 µM (inactive)
9 | CN(C)c1ccc(C2CC(c3ccc4ccccc4c3O)=NN2)cc1 (stereo not given) | 38.4 µM (inactive) | 19.5 µM (inactive) | 25.5 µM (inactive) |  | 50 µM (inactive) | 26.5 µM (inactive) | 51.1 µM (inactive) | 41.5 µM (inactive) | 30.3 µM (inactive) | 80.7 µM (inactive) | 32.4 µM (inactive) | 36 µM (inactive) | 48.5 µM (inactive) | 33.2 µM (inactive) | 56.4 µM (inactive) | 38.8 µM (inactive) | 30.1 µM (inactive) | 17.9 µM (inactive) |  | 31.7 µM (inactive)
10 | CNc1cc([N+](=O)[O-])ccc1C(=O)N1CCC[C@H]1CO | > 100 µM (inactive) |  | > 100 µM (inactive) | > 100 µM (inactive) | > 100 µM (inactive) | > 100 µM (inactive) |  | > 100 µM (inactive) | > 100 µM (inactive) | > 100 µM (inactive) | > 100 µM (inactive) |  | > 100 µM (inactive) | > 100 µM (inactive) | > 100 µM (inactive) | > 100 µM (inactive) | > 100 µM (inactive) |  | > 100 µM (inactive) | > 100 µM (inactive)
11 | CC(C)(C)C(=O)O[C@H]1C=C[C@@H](O)[C@@H]2[C@H]1[C@@H]1C=C[C@H]2C1 | 45.4 µM (inactive) | 6.03 µM (inactive) | 31.9 µM (inactive) | 21.4 µM (inactive) | 19.2 µM (inactive) | 19.3 µM (inactive) | > 10 µM (inactive) |  | 20.2 µM (inactive) | 1.96 µM (inactive) | 19 µM (inactive) |  | 25.2 µM (inactive) | 16.6 µM (inactive) | 26.4 µM (inactive) | 6.52 µM (inactive) | 47.9 µM (inactive) | 9.35 µM (inactive) | 6.01 µM (inactive) | 29.6 µM (inactive)
12 | COc1ccc(/C=C2\C[C@H]3[C@@H]4CC=C5C[C@@H](OC(C)=O)CC[C@]5(C)[C@H]4CC[C@]3(C)\C2=N\O)cc1OC | 8 µM (inactive) | 8.77 µM (inactive) | 5.19 µM (inactive) | 13.3 µM (inactive) |  | 10.4 µM (inactive) | 53 µM (inactive) | 9.2 µM (inactive) | 53.5 µM (inactive) | 33.9 µM (inactive) | 5.71 µM (inactive) | 2.71 µM (inactive) | 68.1 µM (inactive) | 15.4 µM (inactive) |  | 14.9 µM (inactive) | 4.2 µM (inactive) | 7.5 µM (inactive) | 3.01 µM (inactive) | 8.05 µM (inactive)
13 | CC(C)(C)[Si](C)(C)OCC1OC(n2ccc(=O)[nH]c2=O)C(O[Si](C)(C)C(C)(C)C)[C@]12O[C@@H]2CO (stereo not given in full) | 11.9 µM (inactive) | 17.5 µM (inactive) | 23.3 µM (inactive) | 16.3 µM (inactive) | 19.5 µM (inactive) | 20.9 µM (inactive) |  | 13.8 µM (inactive) | 17.4 µM (inactive) | 17.5 µM (inactive) | 29 µM (inactive) | 14 µM (inactive) | 15.6 µM (inactive) | 15.7 µM (inactive) | 14.8 µM (inactive) | 18.2 µM (inactive) | 8.85 µM (inactive) | > 10 µM (inactive) | 17 µM (inactive) | 11.3 µM (inactive)
14 | COc1cccc2c1[C@H]1CO[C@H]3C4C[C@H](C(=O)O)C([C@@H](C2)N13)N4C (stereo not given in full) | 3.85 µM (inactive) | 1.6 µM (inactive) | 1.47 µM (inactive) | 1.36 µM (inactive) | 0.205 µM (active) | 0.17 µM (active) | 2.61 µM (inactive) | 1.29 µM (inactive) | 0.764 µM (active) | 2.37 µM (inactive) |  | 1.88 µM (inactive) |  | 1.99 µM (inactive) | 3.28 µM (inactive) | 1.91 µM (inactive) | 1.54 µM (inactive) |  | 4.74 µM (inactive) | 2.53 µM (inactive)
15 | COc1ccccc1/C=C/c1c(N)ncnc1Nc1cccc(Cl)c1 | 6.56 µM (inactive) |  | 0.376 µM (active) |  | 17.7 µM (inactive) | 25 µM (inactive) | 30.5 µM (inactive) | 17.4 µM (inactive) |  | 31.8 µM (inactive) | 25.4 µM (inactive) | 22 µM (inactive) |  | 13.5 µM (inactive) | 14.5 µM (inactive) | 19.3 µM (inactive) | 20.6 µM (inactive) | 0.16 µM (active) | 16.7 µM (inactive) | 23.5 µM (inactive)
